Laboratory results taken from paper PMC9303312, “Balancing Histone Deacetylase (HDAC) Inhibition and Drug‐likeness: Biological and Physicochemical Evaluation of Class I Selective HDAC Inhibitors” (Chemmedchem, 2022).
Converted amounts (≈) assume the structure as drawn. Read-outs that look alike come from different tables or passages of the source.

How the values were obtained:
[1] = Solubility in PBS buffer by OECD flask method with HPLC quantification; type: physicochemical
HDAC1 [2] = target: T1, HDAC1 (Homo sapiens, UniProt Q13547); test: In vitro HDAC inhibition preincubation assay (ZMAL substrate)
T1 sequence (Q13547 whole entry): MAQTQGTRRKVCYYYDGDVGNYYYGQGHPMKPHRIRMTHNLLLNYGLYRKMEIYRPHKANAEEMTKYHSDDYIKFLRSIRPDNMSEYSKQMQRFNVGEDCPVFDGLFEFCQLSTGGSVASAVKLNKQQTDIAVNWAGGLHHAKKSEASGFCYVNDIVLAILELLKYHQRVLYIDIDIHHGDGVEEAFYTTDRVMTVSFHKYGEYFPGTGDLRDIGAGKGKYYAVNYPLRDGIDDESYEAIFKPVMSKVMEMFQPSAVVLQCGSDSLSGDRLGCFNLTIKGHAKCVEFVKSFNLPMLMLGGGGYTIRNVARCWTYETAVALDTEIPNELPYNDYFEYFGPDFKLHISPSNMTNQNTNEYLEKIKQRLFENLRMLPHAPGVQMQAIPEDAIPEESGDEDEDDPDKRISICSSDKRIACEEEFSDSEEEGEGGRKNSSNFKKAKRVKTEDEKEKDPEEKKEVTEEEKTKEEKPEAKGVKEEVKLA

HDAC2 [3] = target: T2, HDAC2 (Homo sapiens, UniProt Q92769); test: as above
T2 sequence (Q92769 whole entry): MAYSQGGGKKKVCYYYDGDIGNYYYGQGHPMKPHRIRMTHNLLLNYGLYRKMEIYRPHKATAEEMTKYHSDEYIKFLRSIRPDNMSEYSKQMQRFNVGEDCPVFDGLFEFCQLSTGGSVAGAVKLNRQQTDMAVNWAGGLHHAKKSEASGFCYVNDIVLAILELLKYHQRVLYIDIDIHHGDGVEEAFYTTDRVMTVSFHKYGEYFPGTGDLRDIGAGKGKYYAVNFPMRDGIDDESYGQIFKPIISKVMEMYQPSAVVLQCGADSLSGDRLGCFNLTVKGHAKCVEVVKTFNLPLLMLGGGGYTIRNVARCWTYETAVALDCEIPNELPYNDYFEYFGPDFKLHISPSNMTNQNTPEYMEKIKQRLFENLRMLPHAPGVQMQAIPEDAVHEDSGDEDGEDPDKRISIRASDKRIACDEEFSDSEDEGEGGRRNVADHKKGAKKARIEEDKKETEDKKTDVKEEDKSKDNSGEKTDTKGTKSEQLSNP

HDAC3/NcoR2 = HDAC3/NcoR2 (Homo sapiens, UniProt O15379); test: as above
Sequence of HDAC3/NcoR2 (O15379 whole entry): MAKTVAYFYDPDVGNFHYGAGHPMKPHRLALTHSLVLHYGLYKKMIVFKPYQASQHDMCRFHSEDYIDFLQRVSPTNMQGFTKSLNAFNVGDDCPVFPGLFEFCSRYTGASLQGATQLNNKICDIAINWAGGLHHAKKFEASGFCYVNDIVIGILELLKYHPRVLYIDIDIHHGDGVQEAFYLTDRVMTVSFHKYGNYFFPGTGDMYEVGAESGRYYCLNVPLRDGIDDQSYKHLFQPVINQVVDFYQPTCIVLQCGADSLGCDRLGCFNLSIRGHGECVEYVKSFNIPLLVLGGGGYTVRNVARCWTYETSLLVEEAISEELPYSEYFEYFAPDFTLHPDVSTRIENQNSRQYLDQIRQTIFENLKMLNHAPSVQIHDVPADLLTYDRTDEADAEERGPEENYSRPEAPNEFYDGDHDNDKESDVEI
Sequence of HDAC3/NcoR2 (Q9Y618 395-489 partner limits assumed): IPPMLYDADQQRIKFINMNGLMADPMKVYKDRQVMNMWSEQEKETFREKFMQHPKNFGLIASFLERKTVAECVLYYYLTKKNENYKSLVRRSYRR

human recombinant HDAC6 = target: T3, human recombinant HDAC6 (Homo sapiens, UniProt Q9UBN7); test: as above
T3 sequence (Q9UBN7 1-1215): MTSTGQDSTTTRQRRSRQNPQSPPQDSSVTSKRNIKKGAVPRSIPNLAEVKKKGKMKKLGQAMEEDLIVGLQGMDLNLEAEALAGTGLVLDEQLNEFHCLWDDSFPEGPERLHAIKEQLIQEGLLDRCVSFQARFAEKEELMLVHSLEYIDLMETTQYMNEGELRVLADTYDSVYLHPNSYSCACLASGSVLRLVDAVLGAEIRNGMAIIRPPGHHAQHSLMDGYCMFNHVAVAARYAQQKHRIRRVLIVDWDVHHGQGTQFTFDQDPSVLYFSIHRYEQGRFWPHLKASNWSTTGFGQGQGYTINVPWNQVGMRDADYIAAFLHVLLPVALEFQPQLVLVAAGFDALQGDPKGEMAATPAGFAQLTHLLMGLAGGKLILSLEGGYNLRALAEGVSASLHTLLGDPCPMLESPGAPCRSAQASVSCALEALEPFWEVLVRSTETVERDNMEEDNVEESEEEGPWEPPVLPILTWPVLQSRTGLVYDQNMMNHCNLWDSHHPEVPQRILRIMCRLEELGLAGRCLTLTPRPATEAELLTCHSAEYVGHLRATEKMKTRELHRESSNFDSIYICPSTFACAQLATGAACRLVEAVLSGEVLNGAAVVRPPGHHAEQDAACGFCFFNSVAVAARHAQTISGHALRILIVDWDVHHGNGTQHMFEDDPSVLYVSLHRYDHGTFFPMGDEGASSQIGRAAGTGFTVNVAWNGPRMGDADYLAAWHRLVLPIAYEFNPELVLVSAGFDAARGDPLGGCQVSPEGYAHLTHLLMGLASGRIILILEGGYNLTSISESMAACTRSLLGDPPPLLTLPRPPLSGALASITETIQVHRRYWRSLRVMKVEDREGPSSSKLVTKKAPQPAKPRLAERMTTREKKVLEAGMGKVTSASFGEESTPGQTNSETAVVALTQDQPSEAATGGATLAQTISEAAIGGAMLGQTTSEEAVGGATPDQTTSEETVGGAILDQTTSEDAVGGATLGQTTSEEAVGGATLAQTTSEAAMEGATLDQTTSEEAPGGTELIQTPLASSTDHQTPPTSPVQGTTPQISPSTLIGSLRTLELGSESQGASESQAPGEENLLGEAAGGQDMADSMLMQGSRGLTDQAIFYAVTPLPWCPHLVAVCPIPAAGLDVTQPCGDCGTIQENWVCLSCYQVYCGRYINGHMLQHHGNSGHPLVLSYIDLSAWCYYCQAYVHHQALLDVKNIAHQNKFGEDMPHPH

[4] = LogD7.4 by OECD slow-stirring method with HPLC quantification; conditions: 1-octanol/PBS buffer (mutually saturated)
[5] = test system: T‐47D breast cancer cell line; test: WST-8 cell viability assay; conditions: Homo sapiens, T47D, 120 h, read-out: IC50 T‐47D
[6] = test system: MCF‐7 breast cancer cell line; test: WST-8 cell viability assay; conditions: Homo sapiens, MCF7, 120 h, read-out: IC50 MCF‐7
[7] = test system: BT‐474 breast cancer cell line; test: WST-8 cell viability assay; conditions: Homo sapiens, BT-474, 120 h, read-out: IC50 BT‐474
[8] = test system: acetylated α‐tubulin (HDAC6 activity) in MCF‐7 cells; test: Western blot target engagement in MCF-7 cells: acetylated α-tubulin; type: cell-based, human; conditions: MCF-7 cell lysates after 24-hour treatment
MCF‐7 cells = test: Modified wound healing (migration) assay; type: cell-based, human; conditions: MCF-7, 10 μM, followed over 97 h, compared to DMSO control
Procedure: Migration assay. 3D printed (size: 0.5 mm gap) culture-inserts (custom made) were used for pre-
After preincubation with DMSO (1%) or HDACi (10µM) for 24 h medium was removed, wells were washed once with PBS and fresh FCS-free medium with same inhibitor added.
a Axiovert 200 microscope (Carl-Zeiss, Jena, Germany). Migration speed was quantified as reduced scratch wound over time.

HDAC2 [9] = target: T2, HDAC2; test: IC50-shift experiments (varied preincubation time); type: biochemical; design: purchased BPS Bioscience 50052; conditions: triplicates
Procedure: into OptiPlate-96 black micro-plates (PerkinElmer).
Afterwards, the fluorogenic substrate ZMAL
The total assay volume (50 µL,
max. […] Subsequently, 50 µL trypsin solution (0.4
enzymes and the respective inhibitor dilutions were preincubated at 20 °C for 5 to 120 minutes.
Afterwards, the assay protocol was continued as stated above. Compounds were tested in
triplicates and the assay was rerun if necessary. The respective IC50 values and P95 confidence
intervals were determined using Prism 9 for MacOS.

HDAC1 [10] = target: T1, HDAC1; test: Binding kinetics via the Progression Method; type: biochemical; conditions: relationship between kobs and [I]; triplicates
Procedure: (§1) To determine the binding mechanism at the respective HDAC isoform, a series of progression curves were generated, using fixed concentrations of enzyme, substrate, and different inhibitor concentrations. The in situ AMC release was monitored continuously by fluorescence readings recorded every 30 s for 60 or 90 min at 37 °C. The data of each progression curve were fitted to the appropriate equation (Prism 9.1.0 for MacOS). For inhibitors showing slow‐binding Mechanism I&II (Figure 5) time‐dependent product formation follows Eq. 1: (Eq. 1) P=vsst+vin-vss/kobs1-e^-kobst
(§2) where [P] is the amount of generated AMC, which directly correlates with the amount of deacetylated substrate over time [t]. V in and v ss are the initial and final steady‐state velocities of product formation and k obs is the apparat first‐order rate constant for the conversion from the initial velocity to the steady‐state velocity. It characterizes the formation of an enzyme–inhibitor equilibrium.
Fast‐on/fast‐off inhibitors. […] In this case Eq. 1 simplifies as follows: (Eq. 2) P=vsst
Therefore, the deacetylation rate in absence (v 0) and presence (v i) of the inhibitor is constant over time. […] [I] and [S] are the inhibitor and substrate concentrations, respectively and K m is the Michaelis‐Menten constant.
Slow‐binding inhibitors. The slow‐binding Mechanisms I & II are distinguished by their respective relationships between k obs and the inhibitor concentration. For the single‐step slow‐binding Mechanism I the relationship between inhibitor concentration and k obs is linear. The association and dissociation rate constants (k 1 & k −1, see Figure 5) can be obtained by fitting k obs as a function of [I] to Eq. 4. (Eq. 4) kobs=k-1+k11+S/KmI
The secondary association and dissociation rate constants k 2 & k −2 (see Figure 5) as well as the equilibrium dissociation constant K i,1 of the initial inhibitor‐enzyme encounter complex [EI] can be obtained by fitting k obs as a function of [I] (Eq. 5. (Eq. 5) kobs=k-2+k2/I+Ki,11+S/KmI
Determination of binding kinetics via the Progression Method.[14] HDAC1 and HDAC3
deacetylase activities were evaluated at varying inhibitor concentrations. Appropriate inhibitor
concentrations were chosen based on the previously determined IC50 values. To ensure substrate
excess during the experiment, the substrate concentration was set to five times Km. Km was
determined using a series of substrate concentrations.
For the progression curves, the
respective enzyme was incubated with the fluorogenic substrate and inhibitor in assay buffer
(§3) 90 minutes at 37°C. The relationship between AMC concentration and relative fluorescence units
(RFU) was determined and the measured RFU were transformed into the respective AMC
concentration in µM. […]

HDAC3 = HDAC3 (Homo sapiens, UniProt O15379); test: Binding kinetics via the Progression Method; type: biochemical
Sequence of HDAC3 (O15379 whole entry): as the sequence (O15379 whole entry) above
Sequence of HDAC3 (Q9Y618 395-489 partner limits assumed): as the sequence (Q9Y618 395-489 partner limits assumed) above
Procedure: as §1, §2
Fast‐on/fast‐off inhibitors. […]
deacetylase activities were evaluated at varying inhibitor concentrations. […]
concentrations were chosen based on the previously determined IC50 values. […]
determined using a series of substrate concentrations. […]
as §3
(RFU) was determined and the measured RFU were transformed into the respective AMC […]

[11] = 25 °C, pH 7.4, aqueous buffer, thermodynamic from solid, pH=7.4, flask method, 25 °C, 72 h, mean ±SD, read-out: Solubility
[12] = pH 7.4, LogD7.4, slow-stirring method, 1-octanol/PBS buffer pH 7.4, 25 °C, 48 h

| SMILES | solubility at 72 h [1, 11] | IC50 (HDAC1 [2]) | IC50 (HDAC2 [3]) | IC50 (HDAC3/NcoR2) | IC50 (human recombinant HDAC6) | logD at 48 h [4, 12] | other results |
| --- | --- | --- | --- | --- | --- | --- | --- |
| CC(=O)Nc1ccc(C(=O)Nc2cc(-c3ccccc3)ccc2N)cc1 [6 a] | 1.49 ± 0.14 µg/mL (≈ 4.31 µM) | 4.5 ± 0.1 nM | 51.4 ± 4.9 nM | 3960 nM | > 10000 nM | 2.63 |  |
| CC(=O)Nc1ccc(C(=O)Nc2cc(-c3ccc(F)cc3)ccc2N)cc1 [6 b] | 0.45 ± 0.04 µg/mL (≈ 1.24 µM) | 4.4 ± 0.1 nM | 44.7 ± 6.9 nM | 2000 nM | > 10000 nM | 3.41 |  |
| CC(=O)Nc1ccc(C(=O)Nc2cc(-c3cccs3)ccc2N)cc1 [6 c] | 0.74 ± 0.01 µg/mL (≈ 2.11 µM) |  |  |  |  | 2.8 |  |
| CC(=O)Nc1ccc(C(=O)Nc2cc(-c3cccnc3)ccc2N)cc1 [6 e] | 37.7 ± 3.61 µg/mL (≈ 109 µM) | 76.7 ± 9.2 nM | 101 ± 5.4 nM | 636 ± 49.5 nM | > 10000 nM | 1.7 |  |
| CC(=O)Nc1ccc(C(=O)Nc2cc(-c3ccccn3)ccc2N)cc1 [6 f] | 42 ± 0.19 µg/mL (≈ 121 µM) | 207 ± 4.4 nM | 333 ± 5.1 nM | 17400 nM | > 10000 nM | 1.77 |  |
| CC(=O)Nc1ccc(C(=O)Nc2cc(-c3ccc(F)nc3)ccc2N)cc1 [6 g] | 7.66 ± 0.08 µg/mL (≈ 21 µM) | 93.5 ± 2.4 nM | 118 ± 4 nM | 767 ± 31.7 nM | > 10000 nM | 1.97 |  |
| CC(=O)Nc1ccc(C(=O)Nc2cc(-c3cccnc3F)ccc2N)cc1 [6 h] | 1.58 ± 0.14 µg/mL (≈ 4.34 µM) | 153 ± 22.1 nM | 228 ± 7.8 nM | 2870 nM | > 10000 nM | 1.79 |  |
| CC(=O)Nc1ccc(C(=O)Nc2cc(-c3ccnc(F)c3)ccc2N)cc1 [6 i] | 3.72 ± 0.44 µg/mL (≈ 10.2 µM) | 329 ± 20.8 nM | 211 ± 5.4 nM | 5870 nM | > 10000 nM | 2.2 |  |
| CN(C)c1ccc(C(=O)N(CC(=O)NCc2ccccc2)Cc2ccc(C(=O)Nc3cc(-c4ccncc4)ccc3N)cc2)cc1 [10 a] |  | 41.8 ± 0.2 nM | 100 ± 2.6 nM | > 6670 nM |  |  | IC50 [5]: 2570 ± 930 nM; IC50 [6]: 3240 ± 820 nM; IC50 [7]: 3930 ± 560 nM |
| CN(C)c1ccc(C(=O)N(CC(=O)NC2CCCCC2)Cc2ccc(C(=O)Nc3cc(-c4ccncc4)ccc3N)cc2)cc1 [10 b] | 1.99 ± 0.04 µg/mL (≈ 3.29 µM) | 41.1 ± 3.7 nM | 85.5 ± 11.6 nM | > 3330 nM | > 10000 nM | 2.68 | IC50 [5]: 1450 ± 90 nM; IC50 [6]: 4330 ± 1540 nM; IC50 [7]: 2930 ± 430 nM |
| CN(C)c1ccc(C(=O)N(CC(=O)NC(C)(C)C)Cc2ccc(C(=O)Nc3cc(-c4ccncc4)ccc3N)cc2)cc1 [10 c] | 7.48 ± 0.33 µg/mL (≈ 12.9 µM) |  | 59.3 ± 7.9 nM | 16800 nM | > 10000 nM | 2.29 | acetylated α‐tubulin (western blot) [8]: non‐detectable; effect on cell migration (wound closure) (MCF‐7 cells): attenuated cell migration comparably and significantly; effect on cell migration (wound closure) (MCF‐7 cells; listed as LSH‐A54): attenuated cell migration significantly; IC50 [5]: 1580 ± 480 nM; IC50 [6]: 1620 ± 320 nM; IC50 [7]: 2550 ± 400 nM; IC50 (HDAC2 [9]; HDAC2 IC50, preincubation 5 min, preincubation time 5 min at 20°C): 117 nM; IC50 (HDAC2 [9]; HDAC2 IC50, preincubation 15 min, preincubation time 15 min at 20°C): 106 nM; IC50 (HDAC2 [9]; HDAC2 IC50, preincubation 30 min, preincubation time 30 min at 20°C): 109 nM; IC50 (HDAC2 [9]; HDAC2 IC50, preincubation 60 min, preincubation time 60 min at 20°C): 84 nM; IC50 (HDAC2 [9]; HDAC2 IC50, preincubation 120 min, preincubation time 120 min at 20°C): 78.1 nM |
| CC(=O)Nc1ccc(C(=O)Nc2ccccc2N)cc1 [CI‐994, tacedinaline, reference compound] | 200 ± 1.8 µg/mL (≈ 743 µM) |  |  |  |  | 0.84 |  |
| Nc1ccccc1NC(=O)c1ccc(CNC(=O)OCc2cccnc2)cc1 [entinostat, reference compound] |  |  |  |  |  |  | binding mechanism at HDAC1 (HDAC1 [10]): slow-binding Mechanism II; acetylated α‐tubulin (western blot) [8]: non‐detectable; effect on cell migration (wound closure) (MCF‐7 cells): no significant effect on cell migration; IC50 [5]: 2910 ± 890 nM; IC50 [6]: 8980 ± 3000 nM; IC50 [7]: 7090 ± 1000 nM |
| O=C(CCCCCCC(=O)Nc1ccccc1)NO [vorinostat, reference compound] | 255 ± 3.71 µg/mL (≈ 965 µM) |  |  |  |  | 0.99 | solubility at 72 h ([1]; 25 °C, pH 7.4, aqueous buffer, thermodynamic from solid, PBS buffer pH 7.4, single experiment II, read-out: Solubility (II)): 259 µg/mL (≈ 980 µM); solubility at 72 h ([1]; pH 7.4, PBS buffer pH 7.4, mean of two experiments (SD 0.00371), read-out: Solubility): 255 µg/mL (≈ 966 µM); solubility at 72 h ([1]; pH 7.4, PBS buffer pH 7.4, single experiment I, read-out: Solubility (I)): 252 µg/mL (≈ 952 µM); binding mechanism at HDAC1 (HDAC1 [10]): fast‐on/fast‐off binding kinetic; binding mechanism at HDAC3 (HDAC3): fast‐on/fast‐off binding kinetic; logD at 48 h ([4]; pH 7.4, LogD(7.4) (I), single slow-stirring experiment I): 1.01; logD at 48 h ([4]; pH 7.4, LogD(7.4) (II), single slow-stirring experiment II): 0.962; logD at 48 h ([4]; pH 7.4, LogD(7.4) (III), single slow-stirring experiment III): 0.999 |
